In patent US9278068B2, “Vesicle compositions” (Sensulin LLC, priority 2011, dated 2016):

Assays:
[1] = system: HeLa cells; test: MTT assay for cytotoxicity; details: 2 h
Method: The cytotoxicity of the boronic acid derivatives from Table 1 was studied by MTT assay. 150,000 HeLa cells were plated in 96 well plates on the night before the experiments. On the day of experiments, the cells were treated with the boronic acid derivatives at three different concentrations (40 nM, 80 nM, and 160 nM) for 2 h. At the end of the incubation, MTT assays (In-Vitro toxicology MTT based assay kit, Sigma Aldrich, MO) were performed according to the manufacturer's protocol.

[2] = system: NF-κB; test: NF-κB assay for inflammation (nuclear translocation of NF-κB, immunocytochemistry, PCC); details: HeLa cells; for Inflammation (PCC) 40 nM / Inflammation (PCC) 80 nM / Inflammation (PCC) 160 nM: 2 h, PCC between nuclear and cytoplasmic fraction of NF-κB; for nuclear or cytoplasmic localization of NF-κB (FIG. 4 images): boronic acids 80 nM, 2 hrs, LPS positive control
Method: 15,000 HeLa cells were plated in 96 well plates the night before the experiments. On the day of the experiments, the cells were treated with the boronic acids (Table 1, below) at three different concentrations (40 nM, 80 nM, and 160 nM) for 2 h. At the end of the incubation, cells were washed with phosphate buffered saline (PBS) and were fixed in 4% paraformaldehyde for 15 min and permeablized with 0.01% Triton X-100 in PBS for 10 min. The cells were washed with PBS three times. Nonspecific sites were blocked with 5% bovine serum albumin (BSA) in PBS and incubated with the Anti-NF-κB for 1 h, followed by incubation with fluorescein isothiocyanate (FITC)-labeled secondary antibody. After washing the cells at the end of the incubation, the cells were treated with 4′,6-diamidino-2-phenylindole (DAPI) for 1 min and kept at 4° C. until further analysis. Images of the cells were acquired with a Beckman-Coulter 100 automated high-throughput microscope system and analyzed using Cytseer software (Vala Sciences, CA). The co-localization of NF-κB was quantified by measuring the PCC between the nuclear and cytoplasmic fraction of the NF-κB molecule. The PCC is a measure of the overlap between the pixel intensities of the nuclear and NF-κB images of the same cell. The PCC values can range from −1 to 1. […] A negative correlation (negative PCC value) indicates an absence of nuclear translocation.

Compound | MTT (% Cell Survival) 40 nM [1] [%] | MTT (% Cell Survival) 80 nM [1] [%] | MTT (% Cell Survival) 160 nM [1] [%] | Inflammation (PCC) 40 nM [2] | Inflammation (PCC) 80 nM [2] | Inflammation (PCC) 160 nM [2] | nuclear or cytoplasmic localization of NF-κB (FIG. 4 images) [2]
OB(O)c1c(F)c(F)c(F)c(F)c1F [pentafluorophenylboronic acid] | 65.63 | 60.00 | 50.98 | 0.0154 | 0.0762 | 0.2584 | –
OB(O)c1cnc(OCc2ccccc2)nc1OCc1ccccc1 [2,4-bis(benzyloxy)pyrimidine-5-boronic acid] | 100.05 | 89.04 | 74.74 | −0.0647 | −0.0533 | 0.04709 | –
Cc1noc(C)c1B(O)O [3,5-dimethylisoxazole-4-boronic acid] | 88.37 | 90.63 | 42.89 | −0.061 | 0.0057 | −0.01277 | –
OB(O)c1ccccc1O [2-hydroxyphenylboronic acid] | 70.3314 | 55.8039 | 53.64 | −0.0198 | −0.0878 | 0.08884 | –
N#Cc1ccc(B(O)O)cc1 [4-cyanophenylboronic acid] | 60.40 | 63.69 | 54.22 | −0.0705 | −0.204 | 0.4879 | –
OB(O)C1=CCCC1 [cyclopenten-1-yl boronic acid] | 99.21 | 79.90 | 68.16 | −0.0551 | 0.01168 | 0.1634 | –
OB(O)/C=C/c1ccccc1 [trans-2-Phenylvinylboronic acid] | 72.90 | 99.51 | 65.87 | −0.1303 | 0.1523 | 0 | –
OB(O)c1cccc2cnccc12 [5-isoquinolineboronic acid] | 75.80 | 60.84 | 41.69 | −0.0412 | 0.02463 | 0.2784 | predominantly nuclear NF-κB
OB(O)C1CC1 [cyclopropylboronic acid] | 81.55 | 107.79 | 80.01 | −0.0484 | 0.03475 | 0.1705 | –
O=Cc1ccoc1B(O)O [3-formylfuran-2-boronic acid] | 107.84 | 73.72 | 65.18 | −0.0012 | 0.0274 | 0.08621 | –
COc1ccc(C#N)cc1B(O)O [5-cyano-2-methoxyphenylboronic acid] | 81.55 | 49.84 | 62.08 | −0.0808 | −0.0523 | −0.08086 | –
OB(O)c1cc(Br)cs1 [3-bromothiophene-5-boronic acid] | 116.67 | 97.63 | 62.08 | −0.1162 | −0.023 | 0.1539 | –
OB(O)c1ccnc(Cl)c1 [2-chloropyridine-4-boronic acid] | 84.93 | 58.47 | 56.36 | −0.1195 | 0.00374 | 0 | –
Cn1c(B(O)O)cc2ccccc21 [N-methylindole-2-boronic acid] | 63.3131 | 63.6075 | 47.46 | −0.126 | 0.00746 | 0.1336 | –
CC(C)(C)OC(=O)n1cccc1B(O)O [N-boc-2-pyrroleboronic acid] | 60.6873 | 51.264 | 39.41 | −0.0675 | 0.05743 | 0.1837 | –
OB(O)c1cccs1 [2-thienylboronic acid] | 53.48 | 75.76 | 61.19 | −0.121 | −0.0343 | 0 | –
OB(O)c1ccccc1Cl [2-chlorophenylboronic acid] | 86.3068 | 60.0002 | 45.45 | −0.0957 | .00949 | 0.09948 | –
CC(C)OB(CBr)OC(C)C [diisopropyl(bromomethyl)boronate] | 81.27 | 96.62 | 79.32 | −0.0205 | 0.02739 | 0.1157 | –
OB(O)c1ccc2ccccc2c1 [2-napthylboronic acid] | 24.3831 | 37.2192 | 21.1 | 0.06402 | 0.2437 | 0.09593 | –
CCCOc1ccccc1B(O)O [2-propoxyphenylboronic acid] | 45.7459 | 42.2099 | 41.95 | −0.0398 | 0.03035 | −0.04954 | –
lipopolysaccharide [LPS, reference compound] | – | – | – | – | – | – | nuclear translocation of NF-κB
O=c1[nH]cc(B(O)O)c(=O)[nH]1 [uracil-5-boronic acid] | 68.5083 | 50.3499 | 28.07 | −0.0586 | 0.00516 | −0.01522 | –
OB(O)c1cc2ccccc2nc1Cl [2-chloro-3-quinolineboronic acid] | 30.1105 | 44.7882 | 32.43 | 0.08644 | 0.05095 | 0.193 | –
CCOc1ccc(B(O)O)cn1 [2-ethoxy-5-pyridine-boronic acid] | 81.40 | 69.58 | 33.80 | −0.1416 | −0.0136 | 0.1498 | –
COc1ccc(F)cc1B(O)O [5-fluoro-2-methoxyphenylboronic acid] | 84.22 | 84.22 | 54.92 | −0.0169 | 0.02474 | 0.2936 | –
